Measurements from BindingDB's records for doi:10.1074/jbc.M109.067967 (University of Michigan, 2010).

Columns and labels:
[1] = biological target: T1, Plasminogen activator inhibitor 1 (Homo sapiens, UniProt P05121); test: Enzymatic Assay; settings: pH 7.8; 23 °C
[2] = biological target: Plasminogen activator inhibitor 1 (Mus musculus, UniProt P22777); test: Enzymatic Assay; settings: pH 7.8; 23 °C
[3] = biological target: T1, Plasminogen activator inhibitor 1; test: Enzyme activity assay using human and murine PAI-1.; settings: pH 7.8

SMILES	IC50 [1] [nM]	IC50 [2] [nM]	IC50 [3] [nM]
O=C1c2ccc(O)c(O)c2C(=O)c2c(O)ccc(O)c21 [Quinalizarin, E]	4400		
O=C(Oc1cc(O)cc2c1C[C@@H](OC(=O)c1cc(O)c(O)c(O)c1)[C@@H](c1cc(O)c(O)c(O)c1)O2)c1cc(O)c(O)c(O)c1 [Epigallocatechin-3,5-Digallate, C]	330		
O=C(OCC1OC(OC(=O)c2cc(O)c(O)c(OC(=O)c3cc(O)c(O)c(O)c3)c2)C(OC(=O)c2cc(O)c(O)c(OC(=O)c3cc(O)c(O)c(O)c3)c2)C(OC(=O)c2cc(O)c(O)c(OC(=O)c3cc(O)c(O)c(O)c3)c2)C1OC(=O)c1cc(O)c(O)c(OC(=O)c2cc(O)c(O)c(O)c2)c1)c1cc(O)c(O)c(OC(=O)c2cc(O)c(O)c(O)c2)c1 (centres undefined) [Tannic Acid, A]	7	4.1	6.6
O=C(O[C@@H]1Cc2c(O)cc(O)cc2O[C@@H]1c1cc(O)c(O)c(O)c1)c1cc(O)c(O)c(O)c1 [(-)-Epigallocatechin-3-o-gallate]	91		
O=C(O)c1cc(O)c2c(c1)[C@H]([C@H]1c3cc(C(=O)O)cc(O)c3C(=O)c3c(O[C@@H]4O[C@H](CO)[C@@H](O)[C@H](O)[C@H]4O)cccc31)c1cccc(O[C@@H]3O[C@H](CO)[C@@H](O)[C@H](O)[C@H]3O)c1C2=O [Sennoside A, G]	51000		
O=C(O)c1cc(O)c(O)c(O)c1 [Gallic Acid, F]	6600		

Now from value to molecule:

IC50 [1] [nM]	IC50 [2] [nM]	IC50 [3] [nM]	SMILES
	162	44	O=C(OCCOC(=O)c1cc(O)c(O)c(O)c1)c1cc(O)c(O)c(O)c1 [CDE-008]
	132	20	O=C(O[C@H]1CCCC[C@H]1OC(=O)c1cc(O)c(O)c(O)c1)c1cc(O)c(O)c(O)c1 [CDE-031]
3800			Oc1c(Cl)cc(Cl)c(Cl)c1Cc1c(O)c(Cl)cc(Cl)c1Cl [SMR000058356]
	79	14	O=C(OCC(COC(=O)c1cc(O)c(O)c(O)c1)OC(=O)c1cc(O)c(O)c(O)c1)c1cc(O)c(O)c(O)c1 [CDE-082]
	644	116	O=C(O[C@@H]1CCCC[C@H]1OC(=O)c1cc(O)c(O)c(O)c1)c1cc(O)c(O)c(O)c1 [CDE-034]
	758	74	O=C(Oc1ccccc1OC(=O)c1cc(O)c(O)c(O)c1)c1cc(O)c(O)c(O)c1 [CDE-056]
